Experimental data reported in ChEMBL document CHEMBL1127213, “Design of potent K+ channel openers by pharmacophore model” (Bioorg Med Chem Lett, 1993).

What was measured:
[1] = species: Rattus norvegicus; experiment: Percent intrinsic activity was measured in rat aorta; format: functional
[2] = species: Rattus norvegicus; experiment: Negative logarithm of the molar concentration of compound required to relax rat aorta precontracted with 30 mM KCl by 50%; format: functional

EC50 [2]	Structure (SMILES)	IA [1]
339 nM	C/N=C(/NC#N)C1=CC(C)(C)Oc2ccc(C#N)cc21	73%
263 nM	CNC(=O)C1=CC(C)(C)Oc2ccc(C#N)cc21	66.6%
–	C/N=C(/S)C1=CC(C)(C)Oc2ccc(C#N)cc21	89%
91.2 nM	CC(C)(C)/N=C(/NC#N)Nc1cccnc1	88%
–	CC1(C)Oc2ccc(C#N)cc2[C@@H](N2CCCC2=O)[C@@H]1O [CROMAKALIM]	74.7%
724 nM	CC(N/C(=N\C#N)Nc1ccncc1)C(C)(C)C (stereo not given) [PINACIDIL ANHYDROUS]	91.9%
